Results reported in patent US20050032863A1, “Method of treating or preventing central nervous system disorders with compounds having selectivity for the alpha 3 subunit of the benzodiazepine receptor” (priority 2003, published 2005).

Key:
[1] = system: female Wistar rats, MK-801-induced stereotypies, hyperactivity and ataxia; assay: MK-801-induced psychosis-related behaviour and reversibility by flumazenil (Example 7); assay type: in vivo, rat; conditions: for effect on other stereotypies when flumazenil is added: 30 mg/kg p.o. + flumazenil 5 mg/kg
Experimental: Apart from the haloperidol rats which received haloperidol 30 minutes and MK-801 10 minutes prior to the test, the other test groups received haloperidol, ELB139 or vehicle 60 minutes prior to test, saline or flumazenil 20 minutes prior to test and MK-801 10 minutes prior to test.
The behaviour induced by the NMDA antagonist MK-801 is generally accepted as a rat model of psychosis. MK-801 induces stereotypies, hyperactivity and ataxia in rats after intraperitoneal administration.
Locomotor activity of the rats is recorded by the MotiTest Apparatus (TSE, Bad Homburg, Germany). The test area consisted of a squared arena (45×45 cm) with protective plexiglass walls (20 cm of height) where rats could freely move. Horizontal movements were recorded by 32 infrared photocells arranged along the bottom of each wall of the arena. Vertical movements (rearings) were recorded by a horizontal row of 32 infrared photocells 12 cm above the floor. The following parameters were measured by the computer program “ActiMot” (TSE, Bad Homburg, Germany): • 1. active time [s] • 2. total distance travelled [m]
Stereotypies, divided into stereotyped sniffing and other stereotypies, and ataxia are scored by the experimenter every five minutes for one hour (12 intervals) according to the method described by Andiné et al. (1999). The scores of the 12 intervals are added for each parameter.
The day of experiment the female rats are placed in the laboratory and receive the test compound, the reference substance or vehicle at the appropriate time prior to test. […]
At the beginning of the test the rats are placed in the centre of the squared arena of the MotiTest apparatus. Behaviour of the rats is recorded for one hour. After each run animals are removed and the boxes thoroughly cleaned and dried.

[2] = system: dt^sz mutant Syrian golden hamsters; assay: Genetic hamster model of paroxysmal dystonia, triple stimulation; assay type: in vivo, Syrian golden hamster
Experimental: Drug testing was performed at the maximal sensitivity of the hamsters for induction of dystonic attacks, i.e. between 30 and 40 days of age. Dystonic attacks were induced by a triple stimulation technique: The hamsters were taken from their home cage and placed on a balance (to determine body weight), were then injected i.p. with saline (control) or drug, and immediately placed individually in a new and empty plastic cage. Dystonic attacks started within a few minutes after placing the hamsters in the new plastic cage.
The final stage persisted for two to five hours, but rapid recovery occurred thereafter.
A first group of animals (n=8) was tested for ocurrence and severity of dystonic attacks at the age of 32-33 days after administration of vehicle (i.p.) as well as after performing the triple stimulation procedure as described above. Two or three days later, the same animals received E131-00139 i.p. and were again observed for 3 hours and again 2-3 days later the animals were re-tested after vehicle administration to serve as post dose control. […] The first stack represents the first hour of observation statring with drug administration, the second stack of bars represents the second hour of observation and the third stack the third hour.
The first (open) bar represents the control response of the animals recorded 2-3 days prior to the drug test, the black bar represents the results obtained after drug administration and the third (gray) bar represents the post drug control tested 2-3 days after the drug administration. The pre-and post test was used to exclude that a reduction of severity of stages was only due to a reduction in sensitivity for the induction of dystonic attacks is age dependent.

male Wistar rats = assay: Rat forced swim test; assay type: in vivo
Experimental: All animals were treated with verum or vehicle three times: shortly after the habituation session (23 h), 5 and 1 h prior to testing. All drugs were administered orally with an application volume of 1 ml/kg.
The animals were tested in a glass tank (23×30 cm, height 40 cm) filled to a depth of 28 cm with water at 22° C. (the animals could not touch the bottom). The glass tank was illuminated indirectly and was surrounded by dark brown shading walls (distance from the tank 20 cm) to prevent the view on the experimenter. The experiments were performed between 14:00 and 17:00 hours and the method was in general performed as described (Porsolt et al., 1979; Lucki, 1997).
On the first experimental day, rats were gently placed in the water for a 15 min period of habituation. On removal from the water, they were placed in a standard plexiglass box, the floor covered with paper towels, under an infrared heater for 30 min to dry. The next day, they were once more placed gently in the glass tank and observed for 5 min. The behaviour of the animals was video-taped.
Following the experiment the video tapes were analysed manually and the duration of the following behaviours was recorded: Immobility: floating and making only those movements necessary to keep the nose above the water. […] Climbing: when rats strongly move their forepaws in and out of the water, usually against the walls.

locomotor activity = conditions: open field test and different animal models of anxiety; cited from earlier work
[3] = 30 mg/kg p.o. + flumazenil 5 mg/kg i.p., second trial
[4] = 10 and 30 mg/kg p.o., 23, 5 and 1 h prior to testing

## O=C1N=C(N2CCCCC2)CN1c1ccc(Cl)cc1 [ELB139, 1-(4-chlorophenyl)-4-piperidinoimidazolin-2-one]
[1]; 30 mg/kg p.o. + flumazenil 5 mg/kg i.p., all trials and sum
  effect on distance travelled when flumazenil is added: significantly reversed
[1]; 30 mg/kg p.o. + flumazenil 5 mg/kg i.p., both tests and sum
  effect on activity when flumazenil is added: significantly reversed
[1]; 30 mg/kg p.o. + flumazenil 5 mg/kg i.p., first trial and sum of both trials
  effect on stereotyped sniffing when flumazenil is added: significantly reversed
[1]; [3]
  effect on stereotyped sniffing when flumazenil is added: distinctly antagonised
  reducing effect on ataxia when flumazenil is added: reversed
[1]; 30 mg/kg p.o. + flumazenil 5 mg/kg i.p., sum of both trials
  reversing effect of flumazenil on the ataxia effect: marginal
[1]; first trial
  effect on other stereotypies when flumazenil is added: rather amplified
[1]; second trial
  effect on other stereotypies when flumazenil is added: distinctly reversed
[1]; sum of both trials
  effect on other stereotypies when flumazenil is added: no change
[1]; 30 mg/kg p.o., both tests and sum
  MK-801-induced increase of the distance travelled, whole time curve: significantly reduced
[1]; 30 mg/kg p.o., discrete trials and sum of both trials
  MK-801-induced stereotyped sniffing: significantly reversed
[1]; 30 mg/kg p.o., first trial
  MK-801-induced other stereotypies: slightly reduced
[1]; 30 mg/kg p.o., first trial (November 2003)
  MK-801-induced ataxia: hardly affected
[1]; 30 mg/kg p.o., first trial and sum of both tests
  activity induced by MK-801, whole time curve: significantly reduced
[1]; 30 mg/kg p.o., second trial
  activity induced by MK-801, whole time curve: distinctly reduced
[1]; 30 mg/kg p.o., second trial (January 2004)
  MK-801-induced ataxia: more pronounced but still not significant
[1]; 30 mg/kg p.o., second trial and sum of both trials
  MK-801-induced other stereotypies: significantly reversed
[1]; 30 mg/kg p.o., sum of both trials
  MK-801-induced ataxia: only a slight reduction
[2]; 5 mg/kg i.p.
  antidystonic activity: still a significant antidystonic activity was present
[2]; 10 mg/kg i.p.
  tolerability and sedation: well tolerated and no sedation was observed
[2]; 10 mg/kg i.p., total observation period 3 h
  severity of the dystonic attack: significantly reduced
Male Wistar rats; 30 mg/kg p.o.
  activity following the return to the homecage (subjective observation): moderate hypoactivity
  climbing time: slight but not significant decrease
Male Wistar rats; 30 mg/kg p.o., 23, 5 and 1 h prior to testing
  duration of swimming: increased
Male Wistar rats; 10 and 30 mg/kg p.o.
  tolerability: well tolerated
Male Wistar rats; [4]
  climbing behaviour: not changed
  time spent immobile: had no effect
Locomotor activity
  locomotor activity: did not show a significant reduction
